ChEMBL document CHEMBL5370530, “Discovery of 2,5-diaminopyrimidine derivatives as the first series of selective monomeric degraders of B-lymphoid tyrosine kinase” (Eur J Med Chem, 2023)
Active and inactive are the calls of the source. No cut-off for these calls is given here.

What was measured:
[1] = test system: OCI-Ly7; assay: Antiproliferative activity against human OCILY7 cells at 0.1 to 0.3 uM measured after 72 hrs by cell titer glo luminescent cell viability assay; assay type: functional, cell-based; conditions: dose 0.1-0.3 µM
[2] = test system: PC-9; assay: Antiproliferative activity against human PC-9 cells at 0.1 to 0.3 uM measured after 72 hrs by cell titer glo luminescent cell viability assay; assay type: functional, cell-based; conditions: dose 0.1-0.3 µM
[3] = test system: SU-DHL-6; assay: Growth inhibition of human SU-DHL-6 cells measured after 72 hrs by cell titer glo luminescent cell viability assay; assay type: functional
[4] = test system: SU-DHL-6; assay: Downregulation of CDK2 level in human SU-DHL-6 cells at 1 uM measured after 48 hrs by Western blot analysis; assay type: functional, cell-based
[5] = test system: DOHH-2; assay: Downregulation of CDK2 level in human DOHH-2 cells at 1 uM measured after 48 hrs by Western blot analysis; assay type: functional, cell-based
[6] = molecular target: Tyrosine-protein kinase Lck (Homo sapiens) (UniProt P06239); assay: Induction of degradation of LCK in human Jurkat cells assessed as maximum degradation at > 1 uM incubated for 12 hrs by Western blot analysis relative to control; assay type: cell-based
[7] = molecular target: Tyrosine-protein kinase SYK (Homo sapiens, UniProt P43405); assay: Inhibition of SYK phosphorylation in human Ramos cells incubated for 1 hr; assay type: cell-based
[8] = test system: 6T-CEM; assay: Antiproliferative activity against human 6T-CEM cells at 0.1 to 0.3 uM measured after 72 hrs by cell titer glo luminescent cell viability assay; assay type: functional, cell-based; conditions: dose 0.1-0.3 µM
[9] = test system: RPMI-8226; assay: Antiproliferative activity against human RPMI-8226 cells at 0.1 to 0.3 uM measured after 72 hrs by cell titer glo luminescent cell viability assay; assay type: functional, cell-based; conditions: dose 0.1-0.3 µM
[10] = test system: A-375; assay: Antiproliferative activity against human A-375 cells at 0.1 to 0.3 uM measured after 72 hrs by cell titer glo luminescent cell viability assay; assay type: functional, cell-based; conditions: dose 0.1-0.3 µM
[11] = test system: Raji; assay: Antiproliferative activity against human Raji cells at 0.1 to 0.3 uM measured after 72 hrs by cell titer glo luminescent cell viability assay; assay type: functional, cell-based; conditions: dose 0.1-0.3 µM
[12] = test system: Jurkat; assay: Antiproliferative activity against human Jurkat cells at 0.1 to 0.3 uM measured after 72 hrs by cell titer glo luminescent cell viability assay; assay type: functional, cell-based; conditions: dose 0.1-0.3 µM
[13] = test system: SUD4; assay: Antiproliferative activity against human SU-DHL-4 cells at 0.1 to 0.3 uM measured after 72 hrs by cell titer glo luminescent cell viability assay; assay type: functional, cell-based; conditions: dose 0.1-0.3 µM
[14] = molecular target: Tyrosine-protein kinase BTK (Homo sapiens, UniProt Q06187); assay: Inhibition of full length N-terminal GST tagged BTK (2 to 659 end residues) (unknown origin) expressed in Sf21insect cells by time resolved fluorescence based assay; parameters: species or system Sf21
[15] = test system: MOLT-4; assay: Antiproliferative activity against human MOLT-4 cells at 0.1 to 0.3 uM measured after 72 hrs by cell titer glo luminescent cell viability assay; assay type: functional, cell-based; conditions: dose 0.1-0.3 µM
[16] = test system: RS4-11; assay: Antiproliferative activity against human RS4-11 cells at 0.1 to 0.3 uM measured after 72 hrs by cell titer glo luminescent cell viability assay; assay type: functional, cell-based; conditions: dose 0.1-0.3 µM
[17] = test system: Ramos; assay: Antiproliferative activity against human Ramos cells at 0.1 to 0.3 uM measured after 72 hrs by cell titer glo luminescent cell viability assay; assay type: functional, cell-based; conditions: dose 0.1-0.3 µM
[18] = test system: A-431; assay: Antiproliferative activity against human A-431 cells at 0.1 to 0.3 uM measured after 72 hrs by cell titer glo luminescent cell viability assay; assay type: functional, cell-based; conditions: dose 0.1-0.3 µM
[19] = test system: HBL1; assay: Antiproliferative activity against human HBL1 cells at 0.1 to 0.3 uM measured after 72 hrs by cell titer glo luminescent cell viability assay; assay type: functional, cell-based; conditions: dose 0.1-0.3 µM
[20] = test system: A549; assay: Antiproliferative activity against human A549 cells at 0.1 to 0.3 uM measured after 72 hrs by cell titer glo luminescent cell viability assay; assay type: functional, cell-based; conditions: dose 0.1-0.3 µM
[21] = test system: DOHH-2; assay: Growth inhibition of human DOHH-2 cells measured after 72 hrs by cell titer glo luminescent cell viability assay; assay type: functional
[22] = test system: CCRF-CEM; assay: Antiproliferative activity against human CCRF-CEM cells at 0.1 to 0.3 uM measured after 72 hrs by cell titer glo luminescent cell viability assay; assay type: functional, cell-based; conditions: dose 0.1-0.3 µM
[23] = test system: DOHH-2; assay: Antiproliferative activity against human DOHH-2 cells at 0.1 to 0.3 uM measured after 72 hrs by cell titer glo luminescent cell viability assay; assay type: functional, cell-based; conditions: dose 0.1-0.3 µM
[24] = test system: OPM-2; assay: Antiproliferative activity against human OPM-2 cells at 0.1 to 0.3 uM measured after 72 hrs by cell titer glo luminescent cell viability assay; assay type: functional, cell-based; conditions: dose 0.1-0.3 µM
[25] = test system: SU-DHL-6; assay: Antiproliferative activity against human SU-DHL-6 cells at 0.1 to 0.3 uM measured after 72 hrs by cell titer glo luminescent cell viability assay; assay type: functional, cell-based; conditions: dose 0.1-0.3 µM
[26] = test system: NAMALVA; assay: Antiproliferative activity against human NAMALVA cells at 0.1 to 0.3 uM measured after 72 hrs by cell titer glo luminescent cell viability assay; assay type: functional, cell-based; conditions: dose 0.1-0.3 µM
[27] = test system: SUD4; assay: Growth inhibition of human SU-DHL-4 cells measured after 72 hrs by cell titer glo luminescent cell viability assay; assay type: functional
[28] = test system: TMD8; assay: Antiproliferative activity against human TMD8 cells at 0.1 to 0.3 uM measured after 72 hrs by cell titer glo luminescent cell viability assay; assay type: functional, cell-based; conditions: dose 0.1-0.3 µM
[29] = test system: Pfeiffer; assay: Antiproliferative activity against human Pfeiffer cells at 0.1 to 0.3 uM measured after 72 hrs by cell titer glo luminescent cell viability assay; assay type: functional, cell-based; conditions: dose 0.1-0.3 µM
[30] = test system: Ramos; assay: (§1) Downregulation of BLK level in human Ramos cells at 0.3 uM measured after 12 hrs by Western blot analysis; assay type: functional
[31] = as §1; assay type: functional

Sequence of Tyrosine-protein kinase BTK (Q06187 whole entry): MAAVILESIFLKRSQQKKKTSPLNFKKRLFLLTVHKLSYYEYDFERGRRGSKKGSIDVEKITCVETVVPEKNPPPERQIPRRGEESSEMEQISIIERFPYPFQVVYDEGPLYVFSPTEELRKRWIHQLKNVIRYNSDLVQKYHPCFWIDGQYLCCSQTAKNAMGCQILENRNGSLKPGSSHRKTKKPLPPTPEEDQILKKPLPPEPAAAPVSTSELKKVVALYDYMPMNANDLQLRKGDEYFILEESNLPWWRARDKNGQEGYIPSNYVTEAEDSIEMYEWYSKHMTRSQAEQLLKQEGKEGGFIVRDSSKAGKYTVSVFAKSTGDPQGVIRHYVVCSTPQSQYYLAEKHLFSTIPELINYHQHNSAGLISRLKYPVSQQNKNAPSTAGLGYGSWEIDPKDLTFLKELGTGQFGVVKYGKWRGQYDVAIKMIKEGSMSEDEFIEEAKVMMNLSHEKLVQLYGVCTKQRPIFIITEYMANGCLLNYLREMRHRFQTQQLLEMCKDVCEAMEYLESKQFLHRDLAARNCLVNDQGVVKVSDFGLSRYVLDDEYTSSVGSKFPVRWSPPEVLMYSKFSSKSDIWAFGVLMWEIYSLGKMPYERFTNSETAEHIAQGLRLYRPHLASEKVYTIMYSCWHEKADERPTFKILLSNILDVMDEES
Sequence of Tyrosine-protein kinase Lck (Homo sapiens) (P06239 2-509 limits assumed): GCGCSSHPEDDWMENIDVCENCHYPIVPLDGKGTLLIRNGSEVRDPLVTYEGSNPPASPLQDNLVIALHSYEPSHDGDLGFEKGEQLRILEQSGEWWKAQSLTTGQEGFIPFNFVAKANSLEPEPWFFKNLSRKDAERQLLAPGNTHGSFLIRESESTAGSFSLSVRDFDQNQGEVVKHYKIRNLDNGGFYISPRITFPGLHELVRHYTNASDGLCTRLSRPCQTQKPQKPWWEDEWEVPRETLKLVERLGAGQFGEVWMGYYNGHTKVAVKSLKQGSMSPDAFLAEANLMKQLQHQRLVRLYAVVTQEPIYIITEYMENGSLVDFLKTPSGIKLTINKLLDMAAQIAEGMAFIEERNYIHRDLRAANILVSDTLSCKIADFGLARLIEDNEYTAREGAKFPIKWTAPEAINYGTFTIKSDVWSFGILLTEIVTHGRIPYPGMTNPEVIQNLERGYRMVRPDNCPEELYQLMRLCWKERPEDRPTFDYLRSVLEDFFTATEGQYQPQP

Cc1ccc(NC(=O)c2ccc(-c3cccc(C(F)(F)F)c3)cc2)cc1C(=O)Nc1cnc(Nc2cccc(N)c2)nc1
Activity [1]: inactive
Activity [2]: inactive
GI50 [3]: 360 nM
Activity [4]: Active
Activity [5]: Active
Emax [6]: < 50%
IC50 [7]: 2900 nM
Activity [8]: inactive
Activity [9]: inactive
Activity [10]: inactive
Activity [11]: inactive
Activity [12]: inactive
Activity [13]: Active
IC50 [14]: 2560 nM
Activity [15]: inactive
Activity [16]: inactive
Activity [17]: inactive
Activity [18]: inactive
Activity [19]: inactive
Activity [20]: inactive
GI50 [21]: 130 nM
Activity [22]: inactive
Activity [23]: Active
Activity [24]: inactive
Activity [25]: Active
Activity [26]: inactive
GI50 [27]: 180 nM
Activity [28]: inactive
Activity [29]: Active

C=CC(=O)N1CCC(c2cccc(Nc3ncc(NC(=O)c4cc(NC(=O)c5ccc6cnccc6c5)ccc4C)cn3)c2)CC1
Activity [30]: Active

Cc1ccc(NC(=O)c2ccc3ccccc3c2)cc1C(=O)Nc1cnc(Nc2cccc(N)c2)nc1
IC50 [7]: < 100 nM

Cc1ccc(NC(=O)c2ccc3cnccc3c2)cc1C(=O)Nc1cnc(Nc2cccc(C3CCN(C(=O)/C=C/CN(C)C)CC3)c2)nc1
Activity [30]: Active

Cc1ccc(NC(=O)c2ccc(Oc3ccccc3)cc2)cc1C(=O)Nc1cnc(Nc2cccc(N)c2)nc1
Emax [6]: < 50%
IC50 [7]: 2730 nM
IC50 [14]: 991 nM

CN1CCN(CCOc2cc(OC3CCOCC3)c3c(Nc4c(Cl)ccc5c4OCO5)ncnc3c2)CC1
Activity [30]: Active

CCC(=O)Nc1cccc(Nc2ncc(NC(=O)c3cc(NC(=O)c4cccc(C(F)(F)F)c4)ccc3C)cn2)c1
IC50 [7]: < 100 nM
Activity [31]: >85%

C=CC(=O)N1CCC[C@@H](n2nc(-c3ccc(Oc4ccccc4)cc3)c3c(N)ncnc32)C1
Activity [30]: inactive

Cc1ccc(-c2nn(C(C)(C)C)c3ncnc(N)c23)cc1
GI50 [3]: 4700 nM
Activity [30]: inactive
GI50 [21]: 3700 nM
GI50 [27]: > 10000 nM

Cc1ccc(NC(=O)CC23C[C@H]4C[C@@H](C2)C[C@@H](C3)C4)cc1C(=O)Nc1cnc(Nc2cccc(N)c2)nc1
IC50 [14]: 338 nM

C=CC(=O)NCCC(=O)c1cccc(Nc2ncc(NC(=O)c3cc(NC(=O)c4cccc(-c5ccc(F)cc5)c4)ccc3C)cn2)c1
Activity [31]: >85%

Cc1nc(Nc2ncc(C(=O)Nc3c(C)cccc3Cl)s2)cc(N2CCN(CCO)CC2)n1
Activity [30]: Active

Cc1ccc(NC(=O)Cc2ccc(-c3ccccc3)cc2)cc1C(=O)Nc1cnc(Nc2cccc(N)c2)nc1
GI50 [3]: 6200 nM
Emax [6]: < 50%
IC50 [14]: 5810 nM
GI50 [21]: 2500 nM
GI50 [27]: 8900 nM

C=CC(=O)Nc1cccc(Nc2nc(Nc3ccc(OCCOC)cc3)ncc2F)c1
Activity [30]: Active

Cc1ccc(NC(=O)C[C@@]23C[C@@H]4C[C@@H](C[C@@](O)(C4)C2)C3)cc1C(=O)Nc1cnc(Nc2cccc(N)c2)nc1
IC50 [14]: 855 nM
